Source: patent publication US20100221763A1, “Specific Acceptors for Transferases to Saccharides and Method for Obtaining and Using Same” (Health Research, Inc, priority 2005, published 2010)

What was measured:
[1] = test system: α1,4-L-FT of colon tumor CC9338; assay: α1,4-L-FT assay, colon tumor extract; format: biochemical, human; conditions: 1 mg protein of the tissue extract
Protocol: (§1) Colon tumor tissue (CC9338) and breast tumor tissue (BC9400) were obtained during surgical procedures at Roswell Park Cancer Institute and stored frozen within 1 h at −70° C. The tissues were homogenized at 4° C. with 4 volumes of 0.1M Tris Maleate […] 0.1% NaN3 using kinematica. After adjusting the concentration of Triton X-100 to 2%, these homogenates were mixed in the cold room for 1 h using Speci-Mix (Thermolyne) and then centrifuged at 20,000 g for 1 h at 4° C. The clear fat-free supernatant was stored frozen at −20° C. until use. Aliquots of 10 μL from this extract were used in assays run in duplicates. Glycosyltransferase activity in cell lysate was determined by mixing the lysates with acceptor and radiolabeled donor (monosaccharide) under the reaction conditions detailed below, followed by separation of un-reacted donor from the radioactive product using anionic or hydrophobic chromatography. In all cases, the radioactive content of isolated products was determined by using 3a70 scintillation cocktail (Research Products International, Mount Prospect, Ill.) and a Beckman LS6500 scintillation counter. Controls for each assay contained the reaction mixture with everything except the acceptor. All assays were run in duplicate. […]

[2] = test system: α1,4-L-FT of breast tumor BC9400; assay: α1,4-L-FT assay, breast tumor extract; format: biochemical, human; conditions: 1 mg protein of the tissue extract
Protocol: as §1

[3] = test system: α1,3-L-FT of colon tumor CC9338; assay: α1,3-L-FT assay, colon tumor extract; format: biochemical, human; conditions: 1 mg protein of the tissue extract
Protocol: as §1

[4] = test system: α1,3-L-FT of breast tumor BC9400; assay: α1,3-L-FT assay, breast tumor extract; format: biochemical, human; conditions: 1 mg protein of the tissue extract
Protocol: as §1

[5] = molecular target: T1, Rat recombinant α2,3(O)ST (Rattus norvegicus, UniProt Q11205); assay: Sialyltransferase assay with cloned α2,3(O)ST; format: biochemical; conditions: for acceptor efficiency for cloned α2,3(O)ST (FIG. 6C): compared to Galβ1,3GalNAcβ1,3Galα-O-Me
T1 construct: purchased Calbiochem
T1 sequence (Q11205 1-350): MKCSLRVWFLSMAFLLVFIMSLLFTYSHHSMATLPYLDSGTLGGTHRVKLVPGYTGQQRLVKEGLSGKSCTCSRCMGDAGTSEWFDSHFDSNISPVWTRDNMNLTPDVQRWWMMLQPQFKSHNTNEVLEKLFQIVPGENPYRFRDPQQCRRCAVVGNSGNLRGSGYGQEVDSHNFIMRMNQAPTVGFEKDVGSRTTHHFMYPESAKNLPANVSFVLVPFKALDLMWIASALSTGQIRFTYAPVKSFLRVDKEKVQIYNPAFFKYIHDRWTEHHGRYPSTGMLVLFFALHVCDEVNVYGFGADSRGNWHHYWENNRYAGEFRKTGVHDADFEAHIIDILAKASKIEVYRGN

In the case of CO[C@H]1[C@H](O[C@H]2[C@H](O)[C@@H](CO)OC(O)[C@@H]2NC(C)=O)O[C@H](CO)[C@H](O)[C@@H]1O (stereo partly shown) [2-O-MeGalβ1,3GlcNAc], the “α1,4-L-FT activity: incorporation of radioactive sugar” value [1] is reported as 727.5 CPM × 10^−3 and the “α1,4-L-FT activity: incorporation of radioactive sugar” value [2] is reported as 4.6 CPM × 10^−3.
With CO[C@H]1[C@H](O[C@H]2[C@H](O)[C@@H](NC(C)=O)C(O)O[C@@H]2CO)O[C@H](CO)[C@H](O)[C@@H]1O (stereo partly shown) [2-O-MeGalβ1,4GlcNAc] the “α1,3-L-FT activity: incorporation of radioactive sugar” value [3] was 540.9 CPM × 10^−3 and the “α1,3-L-FT activity: incorporation of radioactive sugar” value [4] was 30.5 CPM × 10^−3.
For CO[C@H]1O[C@H](CO)[C@H](O)[C@H](O[C@@H]2O[C@H](CO)[C@H](O)[C@H](O[C@@H]3O[C@H](C)[C@H](O)[C@H](O)[C@H]3O)[C@H]2NC(C)=O)[C@H]1O [D-Fucβ1,3GalNAcβ1,3Galα-O-Me], the “acceptor efficiency for cloned α2,3(O)ST (FIG. 6C)” value ([5]; 0.15 mM) was “about 50%”, the “acceptor efficiency for cloned α2,3(O)ST (FIG. 6C)” value ([5]; 0.75 mM) was roughly 100% and the “Sialyltransferase activity (%) Cloned α2,3(O)ST” value ([5]; Table I, acceptor 7.5 mM, 100% = 40560 CPM (3-O-MeGalβ1,4GlcNAcβ1,6(Galβ1,3)GalNAcα-O-Bn), listed as D-Fucβ1,3GalNAcβ1,3-Gal-O-Me) was 115.6%.
